Assay results from US8778985B2, “Inhibiting amyloid-beta peptide/rage interaction at the blood-brain barrier” (The University of Rochester, priority 2006, dated 2014).

Columns and labels:
[1] = test system: APPsw+/− mice; assay: CBF response to brain activation (whisker stimulation), chronic FPS2 treatment of APPsw+/− mice; format: in vivo; settings: 1 mg/kg per day i.p. for two months from 8 months of age
Procedure: (A) Percent increase in cerebral blood flow (CBF) in response to brain activation in mice treated with vehicle (open bar) or FPS2 (closed bar). (B-C) novel object location (B) and novel object recognition (C) expressed as percent exploratory preference in APPsw^+/− mice treated with vehicle (open bar) or FPS2 (closed bar). FPS2 (1 mg/kg per day) was intraperitoneally administered for two months beginning at the age of 8 months old mice. Values are means±s.e.m, n=5-6 per group.
APPsw^+/− mice were treated with FPS2 (1 mg/kg) or with vehicle daily by intraperitoneal injection for two months starting at 8 months old. At the end of the treatment period functional changes in cerebral blood flow (CBF) to brain activation, and memory tests were determined. Brain and plasma Aβ levels were also determined in FPS2 and vehicle treated mice. […]
Compounds were synthesized in parallel using semiautomated chemical reactions. […] Purity was assessed by reverse-phase gradient HPLC. […] After two months of treatment, (i) the cerebral blood flow response to brain activation (whisker stimulation) was measured and (ii) behavioral tests including operant learning, novel object location (NOL), and novel object recognition (NOR) were performed. After these functional tests, the mice were sacrificed and their brains analyzed for Aβ40, Aβ42, and amyloid levels. • CBF response to brain activation. […]

[2] = test system: RAGE-transfected CHO cells; assay: NF-κB activation (translocation) in RAGE-transfected CHO cells; format: cell-based; settings: 1 μM Aβ40; FPS2 at 50 nM or 500 nM
[3] = test system: RAGE-transfected CHO cells; assay: Thiobarbituric acid reactive substance (TBARS) generation (Aβ/RAGE-induced oxidant stress) in RAGE-transfected CHO cells; format: cell-based; settings: 1 μM Aβ40; FPS2 at 50 nM or 500 nM
[4] = molecular target: T1, RAGE (Homo sapiens, UniProt Q15109); assay: 125I-Aβ40 specific binding on RAGE-transfected CHO cells at 4° C., competitive inhibition
T1 construct: expressed in transfected cells; host or cells: Chinese hamster ovary (CHO) cells
Excerpt: Data are mean±s.e.m., n=3 per group.
All three are tertiary amides substituted with a large, hydrophobic hydrocarbon moiety and a monosubstituted aromatic moiety. Linkage to the monosubstituted aromatic is either direct (FPS2) or via an alkyl (FPS1) or heteroaromatic (FPS3) spacer. Two of the compounds also feature a highly electron-poor substituted benzene ring (3-nitro, 4-chloro for FPS1; 3,5-dinitro for FPS2).

T1 sequence (Q15109 23-404): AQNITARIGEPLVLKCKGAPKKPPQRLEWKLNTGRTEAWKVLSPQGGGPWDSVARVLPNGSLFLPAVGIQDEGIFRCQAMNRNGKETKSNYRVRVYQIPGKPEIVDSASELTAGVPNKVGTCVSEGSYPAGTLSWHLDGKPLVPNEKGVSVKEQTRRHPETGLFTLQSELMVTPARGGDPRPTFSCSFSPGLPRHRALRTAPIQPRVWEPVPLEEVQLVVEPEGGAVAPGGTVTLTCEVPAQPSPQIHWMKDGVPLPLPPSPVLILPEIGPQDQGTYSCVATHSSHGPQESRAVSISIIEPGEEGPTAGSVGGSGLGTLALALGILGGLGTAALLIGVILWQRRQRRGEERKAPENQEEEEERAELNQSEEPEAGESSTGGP

SMILES: CC(CC(=O)NCCCN(C(=O)c1cc([N+](=O)[O-])cc([N+](=O)[O-])c1)c1ccccc1)CC(C)(C)C (centres unmarked) [FPS2, 3,5-dinitro-N-phenyl-N-[3-[(3,5,5-trimethyl-1-oxohexyl)amino]propyl]-(9Cl)-benzamide]
- increase of CBF during brain activation compared to vehicle [1]: about 50%
- NF-κB activation [2]: inhibited
- TBARS generation [3]: inhibited
- Ki/Kd ratio (Ki compound's inhibitory constant, Kd Aβ-RAGE binding constant) [4]: 0.45
- inhibitory constant (Ki) of Aβ-RAGE binding ([4]; competitive): low
